Measured values reported in PubChem BioAssay AID248 (DTP/NCI, 2004).
Inconclusive results and toxic doses are left out. No stated cut-off is given here; in the data, active means T/C of 150% or more; inactive means T/C below 125%. Peptide text beside a SMILES is read from it. * marks the point of attachment. ONp = O=[N+]([O-])c1ccc(O*)cc1; Tos = Cc1ccc(S(=O)(=O)*)cc1

Test system: L1210 leukemia ip in BDF1 mice, survival T/C
Assay: NCI In Vivo Anticancer Drug Screen. Data for tumor model L1210 Leukemia (intraperitoneal) in B6D2F1 (BDF1) mice
Details: endpoint: mean survival time, higher = longer survival
How it was run: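 Tumor cells were implanted, animals were treated, and survival was followed. The result divides the treated measurement by the vehicle-control measurement.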

[1] = dose: 100.0 mg/kg/injection, schedule: Q04DX003 (ip), vehicle: Klucel (hydroxypropylcellulose) (HPC)
[2] = dose: 200.0 mg/kg/injection, schedule: Q04DX003 (ip), vehicle: Klucel (hydroxypropylcellulose) (HPC)
[3] = dose: 400.0 mg/kg/injection, schedule: Q04DX003 (ip), vehicle: Klucel (hydroxypropylcellulose) (HPC)
[4] = dose: 100.0 mg/kg/injection, schedule: Q01DX009 (ip), vehicle: saline
[5] = dose: 200.0 mg/kg/injection, schedule: Q01DX009 (ip), vehicle: saline
[6] = dose: 100.0 mg/kg/injection, schedule: Q04DX003 (ip), vehicle: saline
[7] = dose: 200.0 mg/kg/injection, schedule: Q04DX003 (ip), vehicle: saline
[8] = dose: 400.0 mg/kg/injection, schedule: Q04DX003 (ip), vehicle: saline
[9] = dose: 100.0 mg/kg/injection, schedule: Q01DX009 (ip), vehicle: gum acacia
[10] = dose: 100.0 mg/kg/injection, schedule: Q04DX003 (ip), vehicle: gum acacia
[11] = dose: 200.0 mg/kg/injection, schedule: Q01DX009 (ip), vehicle: gum acacia
[12] = dose: 200.0 mg/kg/injection, schedule: Q04DX003 (ip), vehicle: gum acacia
[13] = dose: 400.0 mg/kg/injection, schedule: Q01DX009 (ip), vehicle: gum acacia
[14] = dose: 400.0 mg/kg/injection, schedule: Q04DX003 (ip), vehicle: gum acacia
[15] = dose: 100.0 mg/kg/injection, schedule: Q01DX001 (ip), vehicle: Klucel (hydroxypropylcellulose) (HPC)
[16] = dose: 200.0 mg/kg/injection, schedule: Q01DX001 (ip), vehicle: Klucel (hydroxypropylcellulose) (HPC)
[17] = dose: 400.0 mg/kg/injection, schedule: Q01DX001 (ip), vehicle: Klucel (hydroxypropylcellulose) (HPC)
[18] = dose: 100.0 mg/kg/injection, schedule: Q01DX009 (ip), vehicle: Klucel (hydroxypropylcellulose) (HPC)
[19] = dose: 200.0 mg/kg/injection, schedule: Q01DX009 (ip), vehicle: Klucel (hydroxypropylcellulose) (HPC)
[20] = dose: 400.0 mg/kg/injection, schedule: Q01DX009 (ip), vehicle: Klucel (hydroxypropylcellulose) (HPC)

Measured: T/C

O=C(CCCC(=O)N/N=C/c1cccc(Cl)c1)N/N=C\c1cccc(Cl)c1
inactive: dose: 50.0 mg/kg/injection, schedule: Q01DX001 (ip), vehicle: other 90 % of control | dose: 100.0 mg/kg/injection, schedule: Q01DX001 (ip), vehicle: other 93 % of control | dose: 400.0 mg/kg/injection, schedule: Q01DX001 (ip), vehicle: other 88 % of control

Cc1cccc(Cl)c1N=C=O
inactive: dose: 100.0 mg/kg/injection, schedule: Q01DX001 (ip), vehicle: saline 102 % of control | dose: 200.0 mg/kg/injection, schedule: Q01DX001 (ip), vehicle: saline 102 % of control

CCc1cc(C(C)=O)c(CC)s1
inactive: dose: 100.0 mg/kg/injection, schedule: Q01DX009 (sc), vehicle: olive oil, sesame oil, peanut oil 94 % of control | dose: 100.0 mg/kg/injection, schedule: Q04DX003 (sc), vehicle: olive oil, sesame oil, peanut oil 104 % of control | dose: 200.0 mg/kg/injection, schedule: Q01DX009 (sc), vehicle: olive oil, sesame oil, peanut oil 97 % of control | dose: 200.0 mg/kg/injection, schedule: Q04DX003 (sc), vehicle: olive oil, sesame oil, peanut oil 100 % of control | dose: 400.0 mg/kg/injection, schedule: Q01DX009 (sc), vehicle: olive oil, sesame oil, peanut oil 104 % of control | dose: 400.0 mg/kg/injection, schedule: Q04DX003 (sc), vehicle: olive oil, sesame oil, peanut oil 109 % of control

Cc1ccc(NC(=O)Nc2cc([N+](=O)[O-])ccc2F)cc1C
inactive: [1] 101 % of control | [2] 98 % of control | [3] 101 % of control

C/C=C\C(=O)OC.[W]
inactive: dose: 50.0 mg/kg/injection, schedule: Q01DX009 (ip), vehicle: saline 97 % of control | [4] 105 % of control | [5] 108 % of control

N#Cc1cccn1O
inactive: dose: 37.5 mg/kg/injection, schedule: Q01DX009 (ip), vehicle: Klucel (hydroxypropylcellulose) (HPC) 104 % of control | dose: 75.0 mg/kg/injection, schedule: Q01DX009 (ip), vehicle: Klucel (hydroxypropylcellulose) (HPC) 100 % of control | dose: 150.0 mg/kg/injection, schedule: Q01DX009 (ip), vehicle: Klucel (hydroxypropylcellulose) (HPC) 108 % of control

Cc1cc(Cl)c2cc(Cl)cc(Cl)c2n1
inactive: [4] 89 % of control | [6] 91 % of control | [5] 96 % of control | [7] 89 % of control | [8] 94 % of control

Nc1nc(Cl)c(Br)c(=O)[nH]1
inactive: dose: 25.0 mg/kg/injection, schedule: Q01DX Z (ip), vehicle: methylcellulose (MC) 98 % of control | dose: 50.0 mg/kg/injection, schedule: Q01DX Z (ip), vehicle: methylcellulose (MC) 89 % of control

CCOC(=O)c1ccc(NP(=O)(Nc2ccc(C(=O)OCC)cc2)c2ccc([N+](=O)[O-])cc2)cc1
inactive: dose: 100.0 mg/kg/injection, schedule: Q04DX003 (ip), vehicle: acetone 87 % of control | dose: 200.0 mg/kg/injection, schedule: Q04DX003 (ip), vehicle: acetone 95 % of control | dose: 400.0 mg/kg/injection, schedule: Q04DX003 (ip), vehicle: acetone 95 % of control

C(=N\N=C\c1c[nH]c2ccccc12)/c1c[nH]c2ccccc12
inactive: [9] 87 % of control | [10] 92 % of control | [11] 87 % of control | [12] 89 % of control | [13] 86 % of control | [14] 89 % of control

C1CCN(SN2CCCCC2)CC1
inactive: [4] 100 % of control | [5] 102 % of control

CSCC(C(N)=O)c1cc(Cl)ccc1Cl (configuration not stated)
inactive: [15] 107 % of control | dose: 100.0 mg/kg/injection, schedule: Q01DX009 (ip), vehicle: water 100 % of control | [1] 102 % of control | dose: 100.0 mg/kg/injection, schedule: Q04DX003 (ip), vehicle: water 100 % of control | [16] 103 % of control | dose: 200.0 mg/kg/injection, schedule: Q01DX009 (ip), vehicle: water 94 % of control | [2] 104 % of control | dose: 200.0 mg/kg/injection, schedule: Q04DX003 (ip), vehicle: water 100 % of control | [17] 102 % of control | dose: 400.0 mg/kg/injection, schedule: Q01DX009 (ip), vehicle: water 94 % of control | [3] 96 % of control | dose: 400.0 mg/kg/injection, schedule: Q04DX003 (ip), vehicle: water 90 % of control

Cc1ccc(S(=O)(=O)NCC(=O)NCC(=O)Oc2ccc([N+](=O)[O-])cc2)cc1 (Tos-Gly-Gly-ONp)
inactive: dose: 100.0 mg/kg/injection, schedule: Q04DX003 (ip), vehicle: other 105 % of control | dose: 200.0 mg/kg/injection, schedule: Q04DX003 (ip), vehicle: other 102 % of control | dose: 400.0 mg/kg/injection, schedule: Q04DX003 (ip), vehicle: other 98 % of control

CCCOC(=O)NCCSC(=O)OCCC
inactive: dose: 100.0 mg/kg/injection, schedule: Q01DX001 (ip), vehicle: saline with Tween-80 95 % of control | dose: 200.0 mg/kg/injection, schedule: Q01DX001 (ip), vehicle: saline with Tween-80 95 % of control | dose: 400.0 mg/kg/injection, schedule: Q01DX001 (ip), vehicle: saline with Tween-80 108 % of control

CCC(C(=O)c1ccc(Cl)cc1)C(O)(C(F)(F)F)C(F)(F)F (configuration not stated)
inactive: [15] 95 % of control | [1] 102 % of control | [16] 98 % of control | [2] 98 % of control | [17] 112 % of control | [3] 93 % of control

COC(=O)C#CC(=O)OC
inactive: dose: 3.13 mg/kg/injection, schedule: Q04DX003 (ip), vehicle: Klucel (hydroxypropylcellulose) (HPC) 101 % of control | dose: 6.25 mg/kg/injection, schedule: Q04DX003 (ip), vehicle: Klucel (hydroxypropylcellulose) (HPC) 99 % of control | dose: 12.5 mg/kg/injection, schedule: Q04DX003 (ip), vehicle: Klucel (hydroxypropylcellulose) (HPC) 111 % of control

CCN(CC)C(=O)Cn1cc(F)c(NC(C)=O)nc1=O
inactive: [6] 97 % of control | [7] 101 % of control | [8] 101 % of control

O=C(NCCCl)NNC(=O)c1ccccc1
inactive: [1] 117 % of control | [2] 112 % of control

Br/C=C(\Br)C[N+]12CN3CN(CN(C3)C1)C2
inactive: dose: 100.0 mg/kg/injection, schedule: Q01DX009 (ip), vehicle: saline with Tween-80 96 % of control | dose: 100.0 mg/kg/injection, schedule: Q04DX003 (ip), vehicle: saline with Tween-80 100 % of control | dose: 200.0 mg/kg/injection, schedule: Q04DX003 (ip), vehicle: saline with Tween-80 114 % of control | dose: 400.0 mg/kg/injection, schedule: Q04DX003 (ip), vehicle: saline with Tween-80 101 % of control

Cc1ccc(C)c(NC(=O)Nc2ccc(Cl)cc2)c1
inactive: [9] 96 % of control | [10] 98 % of control | [11] 100 % of control | [12] 90 % of control | [13] 96 % of control | [14] 95 % of control

C=CC1(C)CCC2C(=CCC3C2(C)CC(O)C(O)C3(C)COC2OC(CO)C(O)C(O)C2O)C1 (configuration not stated)
inactive: dose: 75.0 mg/kg/injection, schedule: Q01DX001 (ip), vehicle: saline 96 % of control

O=C1C=Cc2cccc3cccc1c23
inactive: [1] 98 % of control | [2] 112 % of control

CC(=O)c1cccc(NC(=O)Oc2ccc(C(=O)OCc3ccccc3)cc2)c1
inactive: [18] 98 % of control | [19] 95 % of control | [20] 106 % of control

CCCCCCCCCCCCNC(=O)Nc1cccc(C)c1C
inactive: [18] 89 % of control | [1] 98 % of control | [19] 100 % of control | [2] 95 % of control | [20] 89 % of control | [3] 95 % of control
